Source: patent publication US11958865B1, “Leucine-rich repeat kinase 2 (LRRK2) inhibitors” (H. Lundbeck A/S, priority 2022, dated 2024)
Like-named read-outs stand apart in the source and are kept apart here.

Assays:
[1] = Hepatic microsomal intrinsic clearance assay; assay type: in vitro ADME; conditions: for CLint scaled at 1 μM: pooled liver microsomes, pH 7.4, liver microsomes 0.5 mg/mL, NADPH, 1 hour at 37° C., LLOQ 0.36 L/h/kg
Procedure: Compounds (final concentration 1 μM, 1% organic) of the invention were incubated for 1 hour at 37° C., with shaking, in phosphate buffer (pH 7.4) containing commercially sourced pooled liver microsomes (final concentration 0.5 mg/mL). […] At designated time points (0, 5, 10, 20, 30 and 60 minutes) ice-cold acetonitrile containing internal standard (300 μL) was added to an incubation well to stop the reaction then mixed and centrifuged (3220 g for 20 minutes at 4° C.). Supernatant was diluted (1:4) with deionized water then analyzed by LC-MS/MS.

[2] = Hepatocyte intrinsic clearance assay; assay type: in vitro ADME, Human; conditions: pooled donor, cryopreserved hepatocytes, pH 7.4; human hepatocytes 1×10^6/mL; 0.05 μM; 2 h at 37° C.
Procedure: Test compounds (final concentration 0.05 μM, 0.05% organic) were incubated for 2 h at 37° C., with shaking, in supplemented Leibovitz L-15 media (pH 7.4) containing commercially sourced, pooled donor, cryopreserved hepatocytes (final concentration 1×10^6 hepatocytes/mL). The CLint reactions (350 μL) were initiated by addition of test compound. Aliquots (25 μL) were taken at 1, 5, 10, 15, 30, 60, 90 and 120 minutes and then protein crashed with ice-cold acetonitrile containing internal standard (150 μL) then centrifuged (1960 g for 20 minutes at 4° C.). Supernatant was diluted (1:4) with deionized water then analyzed by liquid chromatography (LC)-tandem mass spectrometry (MS/MS).

[3] = Fraction unbound in rat plasma and brain homogenate by equilibrium dialysis; assay type: in vitro ADME, male Sprague-Dawley rat; conditions: 1 μM, equilibrium dialysis 5 h at 37° C.; for fubrain (% free): rat brain homogenate; for fuplasma (% free): rat plasma
Procedure: The fraction of unbound compound in male Sprague-Dawley rat plasma (fuplasma) and brain homogenate (fubrain) were determined by equilibrium dialysis using 96-well HTD-dialysis plates with dialysis membranes (molecular weight cut off 12-14 KDa). One side of the HTD-dialysis plate was loaded with matrix (plasma or brain homogenate) and the other side with buffer (100 mM sodium phosphate buffer, pH 7.4). Test compounds were dissolved in DMSO then spiked (5 μL of 0.2 mM) into blank (995 μL) plasma or diluted brain homogenate (1:4 ratio in phosphate buffer) giving a final nominal concentration 1 μM (≤0.5% DMSO). The matrices were loaded into respective chambers and equilibrated against phosphate buffer for 5 h at 37° C. (in a humidified air incubator with 5% CO2 with shaking). Samples from both chambers (buffer and plasma or brain homogenate) were aliquoted to fresh 96-well polypropylene plates then matrix matched using an equal volume of opposite blank matrix before extraction with cold solvent (3 volumes acetonitrile) containing an appropriate bioanalytical internal standard. After centrifugation (20 min, 3200 g, 4° C.) the supernatants were diluted with appropriate volumes of water and compound concentrations were quantified by LC/MS-MS against matrix matched calibration standards. The fuplasma and fubrain were calculated according to equation 4 below.
[formula] Where [F] is the compound concentration on the buffer (receiver) side of the membrane; [T] is the compound concentration on the plasma or brain (donor) side of the membrane; D is the matrix dilution factor which is determined as D=4 for brain matrix and D=1 for plasma matrix in these assays.

[4] = Rat brain disposition after oral gavage; assay type: in vivo, male Sprague-Dawley rats; conditions: male, Sprague-Dawley, mean ± stdev; for Kp at 1 h / Kp uu at 1 h / concentration at 1 h: oral 5 mg/kg
Procedure: Brain disposition was evaluated in male Sprague-Dawley rats (n=3, standard body weight). Briefly, test compound was formulated as a simple suspension (0.5% HPMC in water) then administered by oral gavage (10 mg/kg, 10 mL/kg or 5 mg/kg, 10 mL/kg). At the designated time point (0.5 or 1 h post dose) rats were sacrificed and terminal blood and brain samples taken. Isolated plasma and brain homogenates were extracted by standard protein precipitation in acetonitrile, containing internal standard. Diluted extracts were analyzed by liquid-chromatography coupled with tandem mass spectrometry detection (LC-MS/MS) using a bioanalytical method. Concentrations of test compound in plasma and brain were quantified against matrix matched calibration standards. The total plasma and brain concentration time data are presented in Table 4 alongside the calculated brain Kp (total brain concentration:total plasma concentration ratio).
The total brain-to-plasma partition coefficient (brain Kp) is given by the ratio of the total brain concentration and total plasma concentration of the compound according to the equation below: […]
Based on the measured rat fuplasma and fubrain values and the brain Kp the unbound brain-to-plasma partition coefficient (brain Kp,uu for each compound was calculated. The Kp,uu parameter describes the extent of brain penetration for each compound, i.e. the parameter gives a direct quantitative description of how the blood-brain barrier (BBB) handles the compounds regarding passive transport and active influx/efflux. The brain Kp,uu is given by the equation below: […]

[5] = target: T1, LRRK2 WT (Homo sapiens (Human), UniProt Q5S007); test: LRRK2 wild-type LanthaScreen TR-FRET kinase activity assay; assay type: biochemical; conditions: 1 nM kinase, 1.3 mM ATP, n≥2 tests
T1 sequence (Q5S007 970-2527): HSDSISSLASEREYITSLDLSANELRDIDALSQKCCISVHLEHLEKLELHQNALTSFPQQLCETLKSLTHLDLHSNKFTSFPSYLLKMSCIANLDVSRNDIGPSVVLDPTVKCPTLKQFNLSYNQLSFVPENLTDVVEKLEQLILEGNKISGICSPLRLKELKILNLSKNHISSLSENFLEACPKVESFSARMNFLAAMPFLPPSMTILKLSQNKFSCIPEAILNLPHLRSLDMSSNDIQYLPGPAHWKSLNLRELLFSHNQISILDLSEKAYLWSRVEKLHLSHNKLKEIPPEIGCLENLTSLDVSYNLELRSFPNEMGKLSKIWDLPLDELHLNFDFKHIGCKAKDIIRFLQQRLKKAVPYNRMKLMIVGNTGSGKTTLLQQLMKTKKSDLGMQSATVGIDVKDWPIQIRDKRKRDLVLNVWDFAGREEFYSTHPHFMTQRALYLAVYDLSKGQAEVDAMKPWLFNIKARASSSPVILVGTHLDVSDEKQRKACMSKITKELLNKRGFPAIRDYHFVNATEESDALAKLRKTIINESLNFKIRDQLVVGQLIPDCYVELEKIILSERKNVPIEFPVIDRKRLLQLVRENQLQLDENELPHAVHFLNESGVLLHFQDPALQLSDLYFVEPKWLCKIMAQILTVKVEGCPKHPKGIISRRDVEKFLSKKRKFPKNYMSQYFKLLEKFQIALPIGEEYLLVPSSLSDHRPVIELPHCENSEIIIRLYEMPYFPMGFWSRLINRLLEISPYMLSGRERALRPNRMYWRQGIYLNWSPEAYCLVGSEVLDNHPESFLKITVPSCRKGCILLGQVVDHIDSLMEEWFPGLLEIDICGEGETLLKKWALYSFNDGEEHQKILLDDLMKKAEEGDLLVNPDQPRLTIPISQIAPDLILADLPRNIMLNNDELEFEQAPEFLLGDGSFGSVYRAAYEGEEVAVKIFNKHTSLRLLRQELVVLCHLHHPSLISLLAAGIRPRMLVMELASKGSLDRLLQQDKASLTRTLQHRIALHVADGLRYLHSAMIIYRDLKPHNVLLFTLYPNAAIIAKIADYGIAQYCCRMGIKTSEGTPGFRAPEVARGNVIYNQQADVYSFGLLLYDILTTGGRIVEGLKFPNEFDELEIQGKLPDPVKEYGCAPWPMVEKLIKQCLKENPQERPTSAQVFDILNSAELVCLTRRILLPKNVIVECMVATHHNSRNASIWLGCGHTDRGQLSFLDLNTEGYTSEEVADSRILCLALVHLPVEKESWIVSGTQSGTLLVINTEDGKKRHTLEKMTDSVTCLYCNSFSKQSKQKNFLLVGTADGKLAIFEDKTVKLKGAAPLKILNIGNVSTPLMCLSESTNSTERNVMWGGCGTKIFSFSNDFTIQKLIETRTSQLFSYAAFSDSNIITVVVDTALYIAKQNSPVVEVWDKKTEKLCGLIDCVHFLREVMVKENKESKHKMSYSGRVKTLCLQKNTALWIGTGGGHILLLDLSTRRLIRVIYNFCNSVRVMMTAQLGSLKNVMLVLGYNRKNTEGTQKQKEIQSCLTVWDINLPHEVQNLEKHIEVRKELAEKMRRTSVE
Procedure: (§1) LRRK2 kinase activity was measured using a LanthaScreen kinase activity assay available from Invitrogen (Life Technologies Corporation). […] The phosphorylated peptide is recognized by a terbium-labelled phospho-specific anti-LRRKtide antibody (pLRRKtide antibody), obtainable from Life Technologies Corporation) and, subsequently, the phosphorylated LRRKtide can be quantified by the extent of TR-FRET between the terbium donor and fluorescein acceptor.
(§2) As discussed above, this mutation increases the kinase activity relative to the wild type. The kinase reactions were performed in a 20 μL volume in 384-well plates. The kinase reaction buffer consisted of 50 mM Tris pH 8.5, 0.01% BRIJ-35, 10 mM MgCl2, 1 mM EGTA, and 2 mM DTT.
(§3) The mixture was further incubated for 30 minutes at RT. TR-FRET was measured by excitation of the terbium-donor with 340 nm light and subsequent (delay time […]) measurement of terbium and fluorescein emission at 495 nm and 520 nm, respectively, over a time window of […]. The measurement was repeated 30 times for fluorescein and 30 times for terbium emission with a […] between repeats. TR-FRET measurements were performed on a Biotek Synergy plate. The TR-FRET signal was calculated as the emission-ratio at 520 nm over 495 nm.
(§4) Test compound potency (IC50) was estimated by nonlinear regression using the sigmoidal dose-response (variable slope) using Xlfit 4 (IDBS, Guildford, Surrey, UK, model 205). Were the IC50 could not be determined the % inhibition at the highest tested concentration is given by equation 1. Equation (1): y=(A+((B−A)/(1+((C/x)^D)))) (1)
(§5) where y is the normalized TR-TRET ratio measurement for a given concentration of test compound, x is the concentration of test compound, A is the estimated efficacy (% inhibition) at infinite compound dilution, and B is the maximal efficacy (% inhibition). C is the IC50 value and D is the Hill slope coefficient. IC50 estimates were obtained from independent experiment and the logarithmic average was calculated.

[6] = target: LRRK2 G2019S (Homo sapiens (Human), UniProt Q5S007, G2019S); test: LRRK2 G2019S LanthaScreen TR-FRET kinase activity assay; assay type: biochemical; conditions: 250 pM kinase, 1.3 mM ATP, n≥2 tests
Chain of LRRK2 G2019S (Q5S007 970-2527 G2019S): as the sequence (Q5S007 970-2527) above, with G1050S counted along it
Procedure: as §1, §2, §3, §4, §5

[7] = target: T1, LRRK2 WT; test: LRRK2 wild-type ADP-Glo kinase assay; assay type: biochemical; conditions: 0.5 nM kinase; 1.0 mM ATP; IC50=Ki,app+[E]/2; n≥2 tests; read-out: LRRK2 WT ADPGlo IC50
Procedure: LRRK2 kinase activity was measured using an ADP-Glo kinase assay from Promega Corporation. The assay is a homogeneous luminescence-based assay that measures ADP formed from a kinase reaction. The ADP is converted into ATP, which is used to generate light in a luciferase reaction. The luminescence generated correlates with kinase activity.
The LRRK2 kinase was obtained from Invitrogen (Life Technologies Corporation) and comprises residue 970 to 2527 of the full length human wild-type LRRK2 kinase. The kinase reactions were performed in a 10 μL volume in 384-well plates. The kinase reaction buffer consisted of 50 mM Tris pH 8.5, 0.01% BRIJ-35, 10 mM MgCl2, 1 mM EGTA, and 2 mM DTT.
The reaction mixture (10 μl total volume) was incubated for 3 hours at room temperature (RT, ca. 25° C.), before the reaction was terminated by addition of 10 μl ADP-Glo reagent. The mixture was further incubated for 60 minutes at RT before addition of 20 μl Kinase detection reagent from the ADP-Glo assay kit. Luminescence signal was measure on a BMG Labtech Pherastar FSX multimode microplate reader. The signal integration time was 0.5 s.
Test compound potency (Ki,app) was estimated by nonlinear regression using the tight-binding fit model in GeneData Screener (GeneData AG). In cases where the Ki,app could not be determined, the % inhibition at the highest tested concentration is reported. The tight-binding fit model is given by euquation (2). […] Ki,app is the apparent dissociation constant of the inhibitor. The IC50 can be calculated as given by equation (3). Equation (3): IC50=Ki,app+[E]/2 (3) IC50 estimates were obtained from independent experiment and the logarithmic average was calculated.

[8] = brain, n=3, read-out: Total brain concentration
[9] = plasma, n=3, read-out: Total plasma concentration
[10] = brain, oral 10 mg/kg, 0.5 h, n=3

| SMILES | CLint scaled at 1 μM [1] | CLint scaled at 0.05 μM [2] | fubrain (% free) [3] | fuplasma (% free) [3] | Kp at 1 h ([4]; brain, n=3) | Kp uu at 1 h ([4]; brain, n=3) | concentration at 1 h [4, 8] | concentration at 1 h [4, 9] | IC50 [5] | IC50 [6] | IC50 [7] | Kp at 0.5 h [4, 10] | Kp uu at 0.5 h [4, 10] | concentration at 0.5 h ([4]; brain, oral 10 mg/kg, 0.5 h, n=3, read-out: Total brain concentration) | concentration at 0.5 h ([4]; plasma, oral 10 mg/kg, 0.5 h, n=3, read-out: Total plasma concentration) | Rate of metabolism classification (liver microsomal CLint) ([1]; based on liver microsomal CLint values of Table 6) |
| --- | --- | --- | --- | --- | --- | --- | --- | --- | --- | --- | --- | --- | --- | --- | --- | --- |
| [2H]C([2H])([2H])c1c2c(nn1-c1ccc(C)nc1C)OCCCn1nc(Cl)c3cnc(nc31)N2 [Example 25, 8-Chloro-2-(2,6-dimethylpyridin-3-yl)-3-(methyl-d3)-2,4,12,13-tetrahydro-11H-5,7-(azenometheno)dipyrazolo[3,4-b:5′,1′-g][1]oxa[4,6,8]triazacycloundecine] | < 6 mL/min/kg | 19.8 mL/min/kg |  |  |  |  |  |  |  |  |  |  |  |  |  |  |
| [2H]C([2H])([2H])c1c2c(nn1-c1cc(F)cnc1OC)OCCCn1nc(Cl)c3cnc(nc31)N2 (single isomer, unassigned) [Example 29, 8-Chloro-2-(5-fluoro-2-methoxypyridin-3-yl)-3-(methyl-d3)-2,4,12,13-tetrahydro-11H-5,7-(azenometheno)dipyrazolo[3,4-b:5′,1′-g][1]oxa[4,6,8]triazacycloundecine] | 21.3 mL/min/kg | 15.5 mL/min/kg |  |  |  |  |  |  |  |  |  |  |  |  |  |  |
| Cc1c2c(nn1-c1cccnc1OC1CC1)OCCCn1nc(Cl)c3cnc(nc31)N2 [Example 16, 8-Chloro-2-(2-cyclopropoxypyridin-3-yl)-3-methyl-2,4,12,13-tetrahydro-11H-5,7-(azenometheno)dipyrazolo[3,4-b:5′,1′-g][1]oxa[4,6,8]triazacycloundecine] | 18.7 mL/min/kg |  | 3.5 % free | 13.9 % free | 1.3 ± 0.2 | 0.32 ± 0.06 | 141 ± 30 ng/g | 112 ± 18 ng/mL | 2.1 nM | 0.93 nM | 0.57 nM |  |  |  |  |  |
| CCc1c2c(nn1-c1cccnc1OC)OCCCn1nc(Cl)c3cnc(nc31)N2 [Example 5, 8-Chloro-3-ethyl-2-(2-methoxypyridin-3-yl)-2,4,12,13-tetrahydro-11H-5,7-(azenometheno)dipyrazolo[3,4-b:5′,1′-g][1]oxa[4,6,8]triazacycloundecine] | 23.2 mL/min/kg |  | 5.2 % free | 12.3 % free | 1.9 ± 0.3 | 0.8 ± 0.13 | 7 ± 3 ng/g | 4 ± 0.8 ng/mL | 4 nM | 1.4 nM | 0.41 nM |  |  |  |  |  |
| CCOc1ncccc1-n1nc2c(c1C)Nc1ncc3c(Cl)nn(c3n1)CCCO2 [Example 2, 8-Chloro-2-(2-ethoxypyridin-3-yl)-3-methyl-2,4,12,13-tetrahydro-11H-5,7-(azenometheno)dipyrazolo[3,4-b:5′,1′-g][1]oxa[4,6,8]triazacycloundecine] | 20.8 mL/min/kg |  | 2.7 % free | 9.7 % free |  |  |  |  | 0.98 nM | 0.35 nM | 0.28 nM | 1.2 ± 0.7 | 0.35 ± 0.18 | 31 ± 11 ng/g | 32 ± 18 ng/mL |  |
| Cc1c2c(nn1-c1cccnc1OC(F)F)OCCCn1nc(Cl)c3cnc(nc31)N2 [Example 19, 8-Chloro-2-(2-(difluoromethoxy)pyridin-3-yl)-3-methyl-2,4,12,13-tetrahydro-11H-5,7-(azenometheno)dipyrazolo[3,4-b:5′,1′-g][1]oxa[4,6,8]triazacycloundecine] | 33.8 mL/min/kg |  | 2.7 % free | 8.6 % free | 2.8 ± 0.5 | 0.87 ± 0.17 | 48 ± 11 ng/g | 19 ± 8 ng/mL | 1.1 nM | 0.35 nM | 0.32 nM |  |  |  |  | moderate to high rate of metabolism |
